Reference: PMC9150124, “Design of a Potent, Selective, and Brain-Penetrant Inhibitor of Wnt-Deactivating Enzyme Notum by Optimization of a Crystallographic Fragment Hit” (Journal of Medicinal Chemistry, 2022)

Columns and labels:
Assay in all cases: SelectScreen kinase profiling, SSBK LanthaScreen Binding SP Technology
[1] = target: kinase named in conditions (Homo sapiens, UniProt P36897); settings: TGFBR1 (ALK5), 10 μM
[2] = target: kinase named in conditions (Homo sapiens, UniProt Q8NFD2); settings: ANKK1, 10 μM
[3] = target: kinase named in conditions (Homo sapiens, UniProt P30291); settings: WEE1, 10 μM
[4] = target: kinase named in conditions (Homo sapiens, UniProt P33981); settings: TTK, 10 μM
[5] = target: kinase named in conditions (Homo sapiens, UniProt Q9NYL2); settings: ZAK, 10 μM
[6] = target: kinase named in conditions (Homo sapiens, UniProt Q9UPZ9); settings: ICK, 10 μM
[7] = target: kinase named in conditions (Homo sapiens, UniProt Q6PHR2); settings: ULK3, 10 μM
[8] = target: kinase named in conditions (Homo sapiens, UniProt P24941)
[9] = target: kinase named in conditions (Homo sapiens, UniProt P22607, G697C); settings: FGFR3 G697C, 10 μM
[10] = target: kinase named in conditions (Homo sapiens, UniProt P53667); settings: LIMK1, 10 μM
[11] = target: kinase named in conditions (Homo sapiens, UniProt P37023); settings: ACVRL1 (ALK1), 10 μM
[12] = target: kinase named in conditions (Homo sapiens, UniProt P10721, V654A); settings: KIT V654A, 10 μM
[13] = target: kinase named in conditions (Homo sapiens, UniProt Q9BYP7); settings: WNK3, 10 μM
[14] = target: kinase named in conditions (Homo sapiens, UniProt Q86UX6); settings: STK32C (YANK3), 10 μM
[15] = target: kinase named in conditions (Homo sapiens, UniProt Q92918); settings: MAP4K1 (HPK1), 10 μM
[16] = target: kinase named in conditions (Homo sapiens, UniProt Q16832); settings: DDR2, 10 μM
[17] = target: kinase named in conditions (Homo sapiens, UniProt Q9UKI8); settings: TLK1, 10 μM
[18] = target: kinase named in conditions (Homo sapiens, UniProt Q9UM73, F1174L); settings: ALK F1174L, 10 μM
[19] = target: kinase named in conditions (Homo sapiens, UniProt P53671); settings: LIMK2, 10 μM
[20] = target: kinase named in conditions (Homo sapiens, UniProt Q9UF33); settings: EPHA6, 10 μM
[21] = target: kinase named in conditions (Homo sapiens, UniProt O43353); settings: RIPK2, 10 μM
[22] = target: kinase named in conditions (Homo sapiens, UniProt P10721, A829P); settings: KIT A829P, 10 μM
[23] = target: kinase named in conditions (Homo sapiens, UniProt P00519, M351T); settings: ABL1 M351T, 10 μM
[24] = target: kinase named in conditions (Homo sapiens, UniProt P37173); settings: TGFBR2, 10 μM
[25] = target: kinase named in conditions (Homo sapiens, UniProt O75460); settings: ERN1, 10 μM
[26] = target: kinase named in conditions (Homo sapiens, UniProt Q9UKE5); settings: TNIK, 10 μM
[27] = target: kinase named in conditions (Homo sapiens, UniProt P11362, V561M); settings: FGFR1 V561M, 10 μM
[28] = target: kinase named in conditions (Homo sapiens, UniProt Q7L7X3); settings: TAOK1, 10 μM
[29] = target: kinase named in conditions (Homo sapiens, UniProt Q9UEE5); settings: STK17A (DRAK1), 10 μM
[30] = target: kinase named in conditions (Homo sapiens, UniProt Q07912); settings: TNK2 (ACK), 10 μM
[31] = target: kinase named in conditions (Homo sapiens, UniProt P57058); settings: HUNK, 10 μM
[32] = target: kinase named in conditions (Homo sapiens, UniProt Q96RR4); settings: CAMKK2 (CaMKK beta), 10 μM
[33] = target: kinase named in conditions (Homo sapiens, UniProt Q9Y2K2); settings: SIK3, 10 μM
[34] = target: kinase named in conditions (Homo sapiens, UniProt Q9Y2U5); settings: MAP3K2 (MEKK2), 10 μM
[35] = target: kinase named in conditions (Homo sapiens, UniProt Q8NI60); settings: ADCK3, 10 μM
kinase named in conditions (Homo sapiens, UniProt Q8NI60), sequence (Q8NI60 163-647): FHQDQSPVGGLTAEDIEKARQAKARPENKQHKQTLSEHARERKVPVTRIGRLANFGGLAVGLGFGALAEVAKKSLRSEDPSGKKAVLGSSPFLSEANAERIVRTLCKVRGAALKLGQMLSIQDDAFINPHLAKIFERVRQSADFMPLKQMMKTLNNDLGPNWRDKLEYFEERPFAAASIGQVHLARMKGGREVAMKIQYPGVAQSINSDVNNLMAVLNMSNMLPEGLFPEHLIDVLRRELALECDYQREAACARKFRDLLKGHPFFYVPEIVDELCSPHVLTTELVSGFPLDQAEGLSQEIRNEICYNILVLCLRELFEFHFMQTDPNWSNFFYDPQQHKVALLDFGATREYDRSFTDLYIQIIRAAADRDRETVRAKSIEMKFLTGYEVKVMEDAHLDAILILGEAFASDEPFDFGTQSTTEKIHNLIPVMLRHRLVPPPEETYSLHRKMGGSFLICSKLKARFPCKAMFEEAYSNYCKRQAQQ

kinase named in conditions (Homo sapiens, UniProt P37173), sequence (P37173 23-567): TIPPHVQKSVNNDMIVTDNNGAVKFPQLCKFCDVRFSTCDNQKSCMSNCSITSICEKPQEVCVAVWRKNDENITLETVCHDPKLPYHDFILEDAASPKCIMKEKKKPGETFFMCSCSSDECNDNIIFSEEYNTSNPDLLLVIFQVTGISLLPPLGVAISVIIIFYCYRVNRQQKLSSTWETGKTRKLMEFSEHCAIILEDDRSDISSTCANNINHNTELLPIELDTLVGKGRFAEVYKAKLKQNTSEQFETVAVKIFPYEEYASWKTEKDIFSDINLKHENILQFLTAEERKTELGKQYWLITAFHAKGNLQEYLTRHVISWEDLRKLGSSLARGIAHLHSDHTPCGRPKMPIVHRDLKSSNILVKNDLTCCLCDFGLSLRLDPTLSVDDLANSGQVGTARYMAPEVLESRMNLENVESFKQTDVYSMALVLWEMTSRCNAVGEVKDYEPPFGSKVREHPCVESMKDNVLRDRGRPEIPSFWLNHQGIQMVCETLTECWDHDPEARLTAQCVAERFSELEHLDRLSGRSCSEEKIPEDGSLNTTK
kinase named in conditions (Homo sapiens, UniProt Q16832), sequence (Q16832 22-855): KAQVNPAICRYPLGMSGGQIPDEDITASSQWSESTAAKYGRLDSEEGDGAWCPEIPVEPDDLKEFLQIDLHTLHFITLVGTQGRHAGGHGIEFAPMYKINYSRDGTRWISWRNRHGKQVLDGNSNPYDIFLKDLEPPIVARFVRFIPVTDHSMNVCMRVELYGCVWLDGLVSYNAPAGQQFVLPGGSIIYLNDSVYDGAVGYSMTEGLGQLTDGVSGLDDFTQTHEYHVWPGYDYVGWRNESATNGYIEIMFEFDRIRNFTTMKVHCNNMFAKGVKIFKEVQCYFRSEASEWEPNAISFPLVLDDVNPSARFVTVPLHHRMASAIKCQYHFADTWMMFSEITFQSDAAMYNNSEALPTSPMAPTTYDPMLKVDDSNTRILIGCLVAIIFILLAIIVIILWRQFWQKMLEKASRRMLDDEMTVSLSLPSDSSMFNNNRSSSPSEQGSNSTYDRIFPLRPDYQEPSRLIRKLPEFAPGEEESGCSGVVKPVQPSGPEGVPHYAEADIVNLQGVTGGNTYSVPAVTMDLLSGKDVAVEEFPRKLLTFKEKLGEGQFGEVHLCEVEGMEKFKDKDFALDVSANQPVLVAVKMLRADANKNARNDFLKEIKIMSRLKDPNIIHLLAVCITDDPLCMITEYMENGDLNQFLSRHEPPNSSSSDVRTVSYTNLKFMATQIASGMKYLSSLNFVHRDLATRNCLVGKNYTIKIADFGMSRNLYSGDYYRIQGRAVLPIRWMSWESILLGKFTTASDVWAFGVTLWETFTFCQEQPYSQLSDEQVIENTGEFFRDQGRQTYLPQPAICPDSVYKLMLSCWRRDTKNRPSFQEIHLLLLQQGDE
kinase named in conditions (Homo sapiens, UniProt P11362, V561M), sequence (P11362 22-822 V561M): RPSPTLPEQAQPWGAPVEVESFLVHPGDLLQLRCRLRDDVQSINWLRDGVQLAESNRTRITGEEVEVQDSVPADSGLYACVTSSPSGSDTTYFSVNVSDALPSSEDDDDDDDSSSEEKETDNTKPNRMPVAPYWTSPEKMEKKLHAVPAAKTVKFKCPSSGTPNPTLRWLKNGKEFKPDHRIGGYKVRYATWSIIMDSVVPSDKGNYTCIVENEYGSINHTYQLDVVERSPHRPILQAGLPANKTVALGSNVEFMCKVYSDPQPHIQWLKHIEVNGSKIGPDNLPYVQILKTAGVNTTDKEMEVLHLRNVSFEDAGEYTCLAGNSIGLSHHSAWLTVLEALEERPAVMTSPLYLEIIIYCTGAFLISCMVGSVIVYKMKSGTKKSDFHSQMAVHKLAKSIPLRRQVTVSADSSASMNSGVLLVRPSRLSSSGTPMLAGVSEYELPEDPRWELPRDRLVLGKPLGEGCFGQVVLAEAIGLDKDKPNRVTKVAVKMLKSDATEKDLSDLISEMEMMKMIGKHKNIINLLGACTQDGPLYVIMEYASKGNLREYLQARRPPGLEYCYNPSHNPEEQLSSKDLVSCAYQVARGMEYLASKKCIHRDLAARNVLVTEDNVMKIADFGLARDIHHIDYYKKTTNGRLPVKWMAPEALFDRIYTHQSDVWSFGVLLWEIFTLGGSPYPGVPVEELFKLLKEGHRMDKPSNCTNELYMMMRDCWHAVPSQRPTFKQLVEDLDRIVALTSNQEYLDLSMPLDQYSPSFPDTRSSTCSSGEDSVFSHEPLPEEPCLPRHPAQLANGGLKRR
kinase named in conditions (Homo sapiens, UniProt Q9UKE5), sequence (Q9UKE5 whole entry): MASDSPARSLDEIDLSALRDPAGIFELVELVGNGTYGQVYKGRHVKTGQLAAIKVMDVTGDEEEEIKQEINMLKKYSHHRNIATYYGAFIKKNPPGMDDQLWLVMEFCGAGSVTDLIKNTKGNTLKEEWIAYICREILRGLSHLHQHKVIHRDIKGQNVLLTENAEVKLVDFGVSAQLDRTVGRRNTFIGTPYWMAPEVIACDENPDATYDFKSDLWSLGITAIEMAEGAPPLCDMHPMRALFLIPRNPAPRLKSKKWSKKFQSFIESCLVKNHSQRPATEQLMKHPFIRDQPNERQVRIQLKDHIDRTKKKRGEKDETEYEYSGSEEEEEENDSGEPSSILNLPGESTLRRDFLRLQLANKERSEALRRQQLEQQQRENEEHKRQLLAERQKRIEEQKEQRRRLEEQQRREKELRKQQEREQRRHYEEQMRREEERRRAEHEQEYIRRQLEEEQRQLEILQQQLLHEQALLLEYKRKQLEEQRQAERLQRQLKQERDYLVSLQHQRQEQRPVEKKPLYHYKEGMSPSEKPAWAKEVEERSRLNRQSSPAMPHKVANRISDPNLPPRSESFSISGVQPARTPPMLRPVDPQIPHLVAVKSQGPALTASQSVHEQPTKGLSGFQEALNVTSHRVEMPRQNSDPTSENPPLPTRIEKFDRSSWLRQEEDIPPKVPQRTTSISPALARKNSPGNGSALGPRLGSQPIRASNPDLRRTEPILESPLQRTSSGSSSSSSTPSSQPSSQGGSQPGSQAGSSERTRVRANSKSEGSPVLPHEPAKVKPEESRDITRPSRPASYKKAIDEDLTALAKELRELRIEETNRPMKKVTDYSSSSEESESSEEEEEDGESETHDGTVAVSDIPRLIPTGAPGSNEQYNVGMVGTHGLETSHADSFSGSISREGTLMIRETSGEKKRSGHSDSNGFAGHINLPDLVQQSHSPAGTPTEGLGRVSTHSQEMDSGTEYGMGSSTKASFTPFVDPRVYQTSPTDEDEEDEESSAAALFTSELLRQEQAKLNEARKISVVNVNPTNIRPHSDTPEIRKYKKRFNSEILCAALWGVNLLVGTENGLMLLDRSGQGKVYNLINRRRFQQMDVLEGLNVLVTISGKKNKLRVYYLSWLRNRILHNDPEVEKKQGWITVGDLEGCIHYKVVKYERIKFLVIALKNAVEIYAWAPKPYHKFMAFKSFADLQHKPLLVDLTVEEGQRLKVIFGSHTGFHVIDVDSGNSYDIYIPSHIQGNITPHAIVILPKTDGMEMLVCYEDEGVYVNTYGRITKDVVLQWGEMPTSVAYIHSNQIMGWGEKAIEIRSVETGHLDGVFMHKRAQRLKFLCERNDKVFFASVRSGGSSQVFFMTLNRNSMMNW
kinase named in conditions (Homo sapiens, UniProt O43353), sequence (O43353 whole entry): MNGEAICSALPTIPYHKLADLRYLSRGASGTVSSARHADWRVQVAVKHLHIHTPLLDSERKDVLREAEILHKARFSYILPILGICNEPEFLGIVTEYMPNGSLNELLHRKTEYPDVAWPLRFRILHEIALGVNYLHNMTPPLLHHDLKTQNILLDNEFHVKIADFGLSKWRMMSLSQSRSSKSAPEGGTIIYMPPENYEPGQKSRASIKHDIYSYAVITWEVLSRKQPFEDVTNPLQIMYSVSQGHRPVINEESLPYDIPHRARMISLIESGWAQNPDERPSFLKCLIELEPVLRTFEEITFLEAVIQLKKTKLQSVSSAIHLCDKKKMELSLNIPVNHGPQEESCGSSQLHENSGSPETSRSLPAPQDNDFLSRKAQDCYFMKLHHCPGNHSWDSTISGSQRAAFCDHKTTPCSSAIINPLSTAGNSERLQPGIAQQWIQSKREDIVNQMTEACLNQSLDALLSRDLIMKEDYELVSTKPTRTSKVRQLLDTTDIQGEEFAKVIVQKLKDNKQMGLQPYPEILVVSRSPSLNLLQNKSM
kinase named in conditions (Homo sapiens, UniProt Q6PHR2), sequence (Q6PHR2 whole entry): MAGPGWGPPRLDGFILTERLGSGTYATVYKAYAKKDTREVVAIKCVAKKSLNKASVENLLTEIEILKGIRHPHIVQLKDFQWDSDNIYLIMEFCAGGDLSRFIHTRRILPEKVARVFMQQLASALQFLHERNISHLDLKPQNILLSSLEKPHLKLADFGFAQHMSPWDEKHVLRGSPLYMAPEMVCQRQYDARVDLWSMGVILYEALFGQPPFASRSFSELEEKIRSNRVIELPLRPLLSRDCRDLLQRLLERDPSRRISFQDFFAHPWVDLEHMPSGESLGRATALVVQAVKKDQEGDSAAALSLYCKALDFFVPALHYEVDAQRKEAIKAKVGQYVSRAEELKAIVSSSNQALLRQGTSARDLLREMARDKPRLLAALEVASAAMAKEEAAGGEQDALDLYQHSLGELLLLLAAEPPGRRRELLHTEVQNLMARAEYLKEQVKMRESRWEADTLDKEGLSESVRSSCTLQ

FC(F)(F)c1c(Cl)ccc(-n2ccnn2)c1Cl [8l, 1-(2,4-Dichloro-3-(trifluoromethyl)phenyl)-1H-1,2,3-triazole]
inhibition at 10 µM [1]: -1% | inhibition at 10 µM [2]: -4% | inhibition at 10 µM [3]: 9% | inhibition at 10 µM [4]: 5% | inhibition at 10 µM [5]: 3% | inhibition at 10 µM [6]: -6% | inhibition at 10 µM [7]: -4% | inhibition at 10 µM ([8]; CDK2/cyclin A1, 10 μM): 3% | inhibition at 10 µM ([8]; CDK2/cyclin E1, 10 μM): -4% | inhibition at 10 µM ([8]; CDK2/cyclin O, 10 μM): 7% | inhibition at 10 µM [9]: -1% | inhibition at 10 µM [10]: 6% | inhibition at 10 µM [11]: 12% | inhibition at 10 µM [12]: 14% | inhibition at 10 µM [13]: -10% | inhibition at 10 µM [14]: 8% | inhibition at 10 µM [15]: 15% | inhibition at 10 µM [16]: -3% | inhibition at 10 µM [17]: 7% | inhibition at 10 µM [18]: 1% | inhibition at 10 µM [19]: -3% | inhibition at 10 µM [20]: 1% | inhibition at 10 µM [21]: 5% | inhibition at 10 µM [22]: -3% | inhibition at 10 µM [23]: 24% | inhibition at 10 µM [24]: 7% | inhibition at 10 µM [25]: -4% | inhibition at 10 µM [26]: 0% | inhibition at 10 µM [27]: 4% | inhibition at 10 µM [28]: 0% | inhibition at 10 µM [29]: 13% | inhibition at 10 µM [30]: 3% | inhibition at 10 µM [31]: 1% | inhibition at 10 µM [32]: -1% | inhibition at 10 µM [33]: 4% | inhibition at 10 µM [34]: 11% | inhibition at 10 µM [35]: 12%
